Data published in US11446244B2 (priority 2020, dated 2022).
Entries after “also recorded” stand apart in the source; their conditions may differ.

What was measured:
[1] = intravenous administration; cited from earlier work
[2] = system: lung metastases; test: Example 9: osteosarcoma lung metastasis patient case, Gemcitabine dpi; format: in vivo; conditions: Gemcitabine 60 dpi BID
Excerpt: 2 months later, after standard chemoradiotherapy is completed, they are found to have three 1-cm lung metastases. […] undergoes second line treatment but the lesions progress, so they are started on Gemcitabine 60 dpi BID and has stabilization for 12 months thereafter. Here also, Verteporfin, Ribavirin, and/or Gemcitabine dpi could all be given together coupled with inhaled or intravenous Perflubron (emulsion).

[3] = system: SARS-CoV; conditions: BALB/c mice; cited from earlier work
[4] = in vivo; cited from earlier work
[5] = system: SARS-CoV-2; conditions: patients with severe COVID-19; intravenous Ribavirin versus supportive care only; cited from earlier work
[6] = system: Coronavirus; test: Example 7: coronavirus infection patient case, Ribavirin dpi; format: in vivo; conditions: dpi 60 mg twice daily for 6 days, started after 2 days of fever
Protocol: A nonsmoker having no previous lung disease develops symptoms of fever for 2 days and is then immediately started on Ribavirin dpi 2 p or 60 mg twice daily for 6 days. […] They avoid hospitalization and thereby avoids what may have been up to an increased 15-20% risk. Verteporfin and Gemcitabine dpi could be substituted for the Ribavirin.

[7] = molecular target: nsp14 (Severe acute respiratory syndrome coronavirus, UniProt P0C6X7); conditions: cited from earlier work
[8] = Example 8: COPD and bilateral pneumonia/ARDS patient case, acetylcysteine dpi; format: in vivo; conditions: dpi every 4 hours with a bronchodilator
Protocol: A smoker with history of moderate chronic obstructive pulmonary disease (COPD) mixed type who has been diagnosed with acute respiratory distress syndrome (ARDS) secondary to bilateral pneumonia. The patient has a very productive cough but not expectorating significant secretions and is currently on high flow system 70% FIO2 (fraction of inspired oxygen). […] The patient is initiated on acetylcysteine dpi every 4 hours along with a bronchodilator (e.g., DUONEB albuterol and ipratropium).

[9] = lipophilic solvents such as perfluorocarbons like perflubron; cited from earlier work
[10] = cited from earlier work
[11] = molecular target: YAP1 (yes-associated protein 1) (Homo sapiens, UniProt P46937); conditions: cited from earlier work
[12] = system: Glioblastoma multiforme; test: Example 12: glioblastoma multiforme patient case, Verteporfin nasal and oral inhalation; format: in vivo; conditions: 15 mg two puffs twice daily, six weeks
Protocol: The patient had standard of care treatment that included surgical resection, radiation and chemotherapy, but then had recurrence and is not candidate for surgical curative intent.
Immunohistochemistry at the 2nd operation is positive for PD-L1 and the patient is started on Verteporfin 15 mg two puffs twice daily both nasal and oral for the next six weeks. […] Here, drug delivery via intravenous route is avoided and possible direct brain delivery via nasal pathway is enabled. Here, systematic delivery of the drug by both nasal and oral inhalation is contemplated.

[13] = Example 11: interstitial pulmonary fibrosis patient case, Verteporfin; format: in vivo; conditions: 15 mg 1 p BID
Excerpt: A nonsmoker farmer has a diagnosis of interstitial pulmonary fibrosis with progressive symptoms over the past 6 months and with reduction in FVC by Pulmonary Function testing. […] Here also, Verteporfin combined with inhaled Perflubron nintedanib may be given. Subsequent or concomitant PDT and/or SDT promotes the elimination of myofibroblasts/macrophages that are otherwise engaged in fibrosis.

Chain of YAP1 (yes-associated protein 1) (P46937 whole entry): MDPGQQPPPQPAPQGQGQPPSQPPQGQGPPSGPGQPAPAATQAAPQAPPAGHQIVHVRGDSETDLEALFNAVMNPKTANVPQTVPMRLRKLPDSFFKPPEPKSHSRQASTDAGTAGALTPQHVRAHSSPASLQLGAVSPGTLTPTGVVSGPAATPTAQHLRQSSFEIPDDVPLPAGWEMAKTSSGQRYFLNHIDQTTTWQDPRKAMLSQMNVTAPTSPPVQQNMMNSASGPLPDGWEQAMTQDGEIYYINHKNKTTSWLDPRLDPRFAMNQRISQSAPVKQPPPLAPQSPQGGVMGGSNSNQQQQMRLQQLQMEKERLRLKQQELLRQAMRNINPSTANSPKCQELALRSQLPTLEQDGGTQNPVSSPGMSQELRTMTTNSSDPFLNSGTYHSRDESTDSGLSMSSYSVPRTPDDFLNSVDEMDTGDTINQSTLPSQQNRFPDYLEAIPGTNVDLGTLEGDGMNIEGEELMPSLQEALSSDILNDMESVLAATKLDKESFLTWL

Nc1ccn([C@@H]2O[C@H](CO)[C@@H](O)C2(F)F)c(=O)n1 [Gemcitabine]
warning label adverse effects [1]: can suppress bone marrow function
duration of stabilization of lung metastases [2]: 12 months

NC(=O)c1ncn([C@@H]2O[C@H](CO)[C@@H](O)[C@H]2O)n1 [Ribavirin]
SARS-CoV infection in treated mice [3]: increased SARS-CoV1 infection
hemoglobin concentrations [4]: reduces hemoglobin concentrations
negative conversion time for SARS-CoV-2 test [5]: not associated with improved negative conversion time; also recorded: not associated with reduced negative conversion time
clinical outcome (symptoms) [6]: symptomatic improvement
excision of Ribavirin by exonuclease activity of nsp14 [7]: can efficiently excise

CC(=O)N[C@@H](CS)C(=O)O [acetylcysteine, N-acetyl cysteine]
clinical outcome (need for mechanical ventilation) [8]: avoid mechanical ventilation

Verteporfin
solubility [9]: soluble in lipophilic solvents
extent of exposure and maximal plasma concentration versus dose ([10]; dose between 6-20 mg/m^2): proportional to the dose
serum half-life ([10]; in vivo): 5 to 6 h
YAP1 inhibition [11]: inhibits YAP1
tumor mass [12]: overall reduction in tumor mass
effect on lung decline [13]: stabilizing effect on lung decline
